Measurements reported in US6919309B2, “Methods and compositions for inhibiting angiogenesis” (Northwestern University, priority 1997, dated 2005).

Tests used:
[1] = system: human dermal microvascular endothelial cells; assay: Endothelial cell migration assay (modified Boyden chamber), human dermal microvascular endothelial cells; format: cell-based; settings: VEGF 200 pg/ml gradient; FIG. 7
Method: (§1) The cells were plated on gelatinized Nucleopore membranes (5 μm pores for bovine capillary cells and 8 μm pores for other cells) in an inverted modified Boyden chamber. After two hours, the chamber was reinverted and test substances added to the top wells of each. Specifically, populations were exposed to either culture medium alone (control), 10 ng/ml bFGF, 2 nM PEDF (full length PEDF), or both 10 ng/ml bFGF (basic fibroblast growth factor) and 10 nM PEDF. The cells were then permitted to migrate for 3-4 hours. Following this, the membranes were fixed and stained, and the number of cells that had migrated were counted.
Additional truncated peptides derived from PEDF were tested for efficacy in the endothelial cell migration assay using human dermal microvascular endothelial cells (Clonetics, Cell Systems) at passage 9 in a modified Boyden Chamber, as described above, and the results are shown in FIG. 7. In FIG. 7A, the cells were exposed to the gradient of VEGF in the presence of purified recombinant PEDF (rPEDF), bacterially produced PEDF (BH) or PEDF peptides containing only amino acid residues 78-121 (44-mer) and 44-77 (34-mer) referring to SEQ ID NO:1. Neutralizing antibodies were added where shown to verify if the anti-angiogenic effect is specific to PEDF peptides and not due to contamination. Both full length PEDF preparations were used at 25 nM, neutralizing polyclonal antiserum against PEDF was used at 1:200 dilution, recombinant human VEGF (R&D Systems) at 200 pg/ml. In FIG. 7B, the cells were exposed to the gradient of VEGF in the presence of increasing concentrations of 34-mer and 44-mer peptides. The antiserum used in this experiment was not affinity purified, whereas the antiserum used in all other experiments presented herein was affinity purified.

[2] = system: bovine adrenal capillary endothelial cells; assay: Endothelial cell migration assay (modified Boyden chamber), bovine adrenal capillary endothelial cells; format: cell-based; settings: migration towards bFGF; FIGS. 4 and 5
Method: as §1
The amount of a given factor necessary to achieve 50% of migration was determined and is reported here as ED50.
In particular, aFGF was employed at a concentration of 50 ng/ml, bFGF was employed at a concentration of 10 ng/ml, IL-8 was employed at a concentration of 40 ng/ml, PDGF was employed at a concentration of 250 pg/ml, and VEGF was employed at a concentration of 100 pg/ml.
In studies aimed at identifying antiangiogenic factors in the eye that might be regulated by the retinoblastoma tumor suppressor gene (Rb), media was fractionated where the media was previously conditioned by a retinoblastoma cell line that had been infected with a retrovirus expressing the wild-type Rb gene, WERI-Rb-27R. (Xu et al., 1991, Cancer Res. 51:4481). […] PEDF was purified from WERI-Rb-27R serum-free conditioned media by sequential steps consisting of dialysis (molecular mass cutoff, 30 kD) against distilled water, 60 to 95% ammonium sulfate precipitation, step elution from lentil lectin Sepharose 4B (Pharmacia) with 0.5 M α-methyl-D-mannopyranoside, and elution from a HiTrap heparin Sepharose column (Pharmacia) with increasing NACl gradient. (Xu, et al., 1991, Cancer Res. 51:4481). […] Migration assays were performed in quadruplicate for each sample with bovine adrenal capillary endothelial cells or human dermal microvascular endothelial cells (Clonetics, San Diego, Calif.) as described. (Polverini, et al., 1991, Methods Enzymol. 198:440). To combine multiple experiments, background migration (Bkgd) was first subtracted toward vehicle (0.1% bovine serum albumin) and them normalized data by setting maximum migration toward inducer alone to 100%. All experiments were repeated two to five times. Statistics were performed on raw data before normalization with the Student's t test. Standard errors were converted to percentages. […] Single-letter abbreviations for the amino acid residues are as follows: A, Ala; D, Asp; E. Glu; F. Phe; G, Gly; I, Ile; L, Leu; M, Met; P, Pro; Q, Gln; R, Arg; S, Ser; T, Thr; V, Val; X, any amino acid; and Y, Tyr.

Row | Molecule | anti-angiogenic activity (block of migration towards VEGF) [1] | potency at inhibiting endothelial cell migration, dose response [2]
1 | 44 amino acid peptide: PEDF peptide containing only amino acid residues 78-121 of SEQ ID NO:1 (VLLSPLSVATALSALSLGADERTESIIHRALYYDLISSPDIHGT; listed as Homo Sapiens) | not active as an anti-angiogenic agent | 
2 | MQALVLLLCIGALLGHSSCQNPASPPEEGSPDPDSTGALVEEEDPFFKVPVNKLAAAVSNFGYDLYRVRSSMSPTTNVLLSPLSVATALSALSLGADERTESIIHRALYYDLISSPDIHGTYKELLDTVTAPQKNLKSASRIVFEKKLRIKSSFVAPLEKSYGTRPRVLTGNPRLDLQEINNWVQAQMKGKLARSTKEIPDEISILLLGVAHFKGQWVTKFDSRKTSLEDFYLDEERTVRVPMMSDPKAVLRYGLDSDLSCKIAQLPLTGSMSIIFFLPLKVTQNLTLIEESLTSEFIHDIDRELKTVQAVLTVPKLKLSYEGEVTKSLQEMKLQSLFDSPDFSKITGKPIKLTQVEHRAGFEWNEDGAGTTPSPGLQPAHLTFPLDYHLNQPFIFVLRDTDTGALLFIGKILDPRGP [34 amino acid peptide] | active as an anti-angiogenic agent | 
3 | truncated peptide: trypsin-truncated PEDF missing the approximately 3-5 kDa carboxy-terminal portion (protein, listed as Homo Sapiens) NPASPPEEGSPDPDSTGALVEEEDPFFKVPVNKLAAAVSNFGYDLYRVRSSMSPTTNVLLSPLSVATALSALSLGADERTESIIHRALYYDLISSPDIHGTYKELLDTVTAPQKNLKSASRIVFEKKLRIKSSFVAPLEKSYGTRPRVLTGNPRLDLQEINNWVQAQMKGKLARSTKEIPDEISILLLGVAHFKGQWVTKFDSRKTSLEDFYLDEERTVRVPMMSDPKAVLRYGLDSDLSCKIAQLPLTGSMSIIFFLPLKVTQNLTLIEESLTSEFIHDIDRELKTVQAVLTVPKLKLSYEGEVTKSLQEMKLQSLFDSPDFSKITGKPIKLTQVEHRAGFEWNEDGAGTTPSPGLQPAHL |  | similarly potent at inhibiting endothelial cell migration
